According to patent US5591741A, “Fungicidal spiroheterocyclic derivatives” (American Cyanamid Company, priority 1993, dated 1997):

Assays:
[1] = tested on: Botrytis cinerea; experiment: Direct protectant activity against broad bean grey mould (BCB); type: in vivo; settings: direct protectant foliar spray, 600 ppm, 4 days
How it was run: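 Broad bean plants (cv The Sutton, two leaf pairs) sprayed on upper leaf surfaces at 600 ppm, then inoculated 24 h later with 10^6 conidia/ml. Kept 4 days at 22 °C, high humidity; disease control rated from % leaf area with lesions against untreated or diluent controls.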

[2] = tested on: Erysiphe graminis f.sp. hordei; experiment: Activity against barley powdery mildew, direct therapeutic (EGT); type: in vivo; settings: direct therapeutic foliar spray, 600 ppm, up to 7 days
How it was run: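 Barley seedlings (cv. Golden Promise, single-leaf stage) were dusted with mildew conidia one day before a therapeutic foliar spray of 600 ppm compound. Plants were kept at 18 °C and 40% humidity for up to 7 days, and sporulating leaf area was rated against untreated or diluent-sprayed controls.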

[3] = tested on: Plasmopara viticola; experiment: Antisporulant activity against vine downy mildew (PVA); type: in vivo; settings: vine leaves, antisporulant foliar spray, 600 ppm, 750 l/ha
How it was run: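 Cabernet Sauvignon vines (~8 cm) inoculated on lower leaf surfaces with 5×10^4 zoosporangia/ml, held 24 h at 21° C high humidity then 24 h glasshouse. Infected leaves sprayed underside with 600 ppm compound in 1:1 water/acetone, 0.04% Tween 20, 750 l/ha; 96 h glasshouse, 24 h humidity. Sporulating leaf area rated versus control.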

[4] = tested on: Rhizoctonia solani; experiment: Activity against Rhizoctonia in-vitro (RSI); type: cell-based; settings: 10 ppm, 10 days, 20° C., mycelial growth
How it was run: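 R. solani mycelial fragments (5×10^4/ml) in half-strength Potato Dextrose Broth with compound added from acetone to 10 ppm final. Mycelial growth assessed after 10 days at 20° C, rated against untreated or diluent control.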

[5] = tested on: Leptosphaeria nodorum; experiment: Activity against wheat leafspot (LN); type: in vivo; settings: direct therapeutic foliar spray, 600 ppm, 6-8 days
How it was run: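 Wheat cv Norman at single-leaf stage spray-inoculated with 1.5×10^6 conidia/ml, held 24 h at high humidity, then sprayed therapeutically with test compound at 600 ppm. Kept 6-8 days at 22° C, 70% humidity; lesion density per leaf rated against untreated or diluent-sprayed controls.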

[6] = tested on: Pseudocercosporella herpotrichoides; experiment: Activity against wheat eyespot in-vitro (PHI); type: cell-based; settings: 10 ppm, 10 days, 20° C., mycelial growth
How it was run: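 P. herpotrichoides mycelial fragments (5×10^4/ml) grown in half-strength PDB with compound at 10 ppm final, added from acetone. Incubated 10 days at 20 °C; mycelial growth rated against untreated or diluent controls.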

[7] = tested on: Phytophthora infestans; type: in vivo; settings: tomato, direct protectant foliar spray
[8] = tested on: Venturia inaequalis; experiment: Activity against apple scab in-vitro (VII); type: cell-based; settings: 10 ppm, 10 days, 20° C., mycelial growth
How it was run: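 Compound in acetone was tested at 10 ppm final in half-strength Potato Dextrose Broth inoculated with V. inaequalis mycelial fragments and spores at 5×10^4 propagules/ml. After 10 days at 20° C, mycelial growth was rated against untreated or diluent controls.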

[9] = tested on: Pyricularia oryzae; type: in vivo; settings: rice seedlings, direct therapeutic foliar spray, 600 ppm, 4-5 days
[10] = tested on: Alternaria solani; experiment: Activity against tomato early blight (AS); type: in vivo; settings: Table VI; tomato seedlings, contact prophylactic foliar spray, 4 days
How it was run: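 Foliar contact prophylactic spray on tomato seedlings (cv Outdoor Girl, second true leaf expanded) in acetone/water 50:50 with 0.04% Tween 20; 24 h at 20° C, 40% R.H., then inoculation with 10^4 spores/ml A. solani conidia. Kept moist at 21° C; lesion cover rated 4 days post-inoculation against untreated or diluent-sprayed controls.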

[11] = tested on: Erysiphe graminis f.sp. hordei; experiment: Direct protectant activity against barley powdery mildew (EGP); type: in vivo; settings: direct protectant foliar spray, 8 days
How it was run: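 Barley seedlings (cv Golden Promise, single-leaf stage) were foliar-sprayed, held 24 h at 18 °C/40% RH, then dusted with mildew conidia. After 8 days at 18 °C/40% RH, sporulating leaf area was scored as a rating against untreated or diluent-sprayed controls.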

CC(C)(C)C1CCC2(CC1)CC(NC1CCC(O)CC1)CO2 (centres unmarked) [Compound 90]
0 (less than 50% disease control): disease control rating PVA [3] | disease control rating RSI [4] | disease control rating LN [5] | disease control rating PHI [6] | disease control rating VII [8] | disease control rating PO [9] | disease control rating AS [10]
2 (greater than 80% disease control): disease control rating BCB [1] | disease control rating EGT [2] | disease control rating PIP [7] | disease control rating EGP [11]

CN(CC1CCCCC1)C1COC2(CCC(C(C)(C)C)CC2)C1 (centres unmarked) [Compound 91]
1 (about 50-80% disease control): disease control rating BCB [1] | disease control rating LN [5]
0 (less than 50% disease control): disease control rating PVA [3] | disease control rating RSI [4] | disease control rating VII [8] | disease control rating PO [9] | disease control rating AS [10]
2 (greater than 80% disease control): disease control rating EGT [2] | disease control rating PHI [6] | disease control rating PIP [7] | disease control rating EGP [11]

CCN(CC1CCCCC1)C1COC2(CCC(C(C)(C)C)CC2)C1 (centres unmarked) [Compound 92]
0 (less than 50% disease control): disease control rating PVA [3] | disease control rating LN [5] | disease control rating PHI [6] | disease control rating VII [8] | disease control rating PO [9] | disease control rating AS [10]
2 (greater than 80% disease control): disease control rating BCB [1] | disease control rating EGT [2] | disease control rating PIP [7] | disease control rating EGP [11]
1 (about 50-80% disease control): disease control rating RSI [4]

CCCN(CC1CCCCC1)C1COC2(CCC(C(C)(C)C)CC2)C1 (centres unmarked) [Compound 93]
0 (less than 50% disease control): disease control rating BCB [1] | disease control rating PVA [3] | disease control rating LN [5] | disease control rating PHI [6] | disease control rating VII [8] | disease control rating PO [9] | disease control rating AS [10]
2 (greater than 80% disease control): disease control rating EGT [2] | disease control rating PIP [7] | disease control rating EGP [11]
1 (about 50-80% disease control): disease control rating RSI [4]

CCC(CC)N(C)C1COC2(CCC(C(C)(C)C)CC2)C1 (centres unmarked) [Compound 94]
2 (greater than 80% disease control): disease control rating EGT [2] | disease control rating EGP [11]
1 (about 50-80% disease control): disease control rating RSI [4] | disease control rating LN [5]
0 (less than 50% disease control): disease control rating BCB [1] | disease control rating PVA [3] | disease control rating PHI [6] | disease control rating PIP [7] | disease control rating VII [8] | disease control rating PO [9] | disease control rating AS [10]

CCC(CC)N(CC)C1COC2(CCC(C(C)(C)C)CC2)C1 (centres unmarked) [Compound 95]
0 (less than 50% disease control): disease control rating BCB [1] | disease control rating PVA [3] | disease control rating LN [5] | disease control rating PHI [6] | disease control rating PIP [7] | disease control rating VII [8] | disease control rating PO [9] | disease control rating AS [10]
1 (about 50-80% disease control): disease control rating RSI [4]
2 (greater than 80% disease control): disease control rating EGT [2] | disease control rating EGP [11]

CCCN(C(CC)CC)C1COC2(CCC(C(C)(C)C)CC2)C1 (centres unmarked) [Compound 96]
0 (less than 50% disease control): disease control rating BCB [1] | disease control rating PVA [3] | disease control rating LN [5] | disease control rating PHI [6] | disease control rating PIP [7] | disease control rating PO [9] | disease control rating AS [10]
1 (about 50-80% disease control): disease control rating RSI [4] | disease control rating VII [8]
2 (greater than 80% disease control): disease control rating EGT [2] | disease control rating EGP [11]

CC(C)(C)C1CCC2(CC1)CC(N)CO2 (centres unmarked) [Compound 97, 3-amino-8-t-butyl-1-oxaspiro(4,5)-decane]
0 (less than 50% disease control): disease control rating BCB [1] | disease control rating PVA [3] | disease control rating RSI [4] | disease control rating LN [5] | disease control rating PHI [6] | disease control rating VII [8] | disease control rating PO [9] | disease control rating AS [10]
2 (greater than 80% disease control): disease control rating EGT [2] | disease control rating PIP [7] | disease control rating EGP [11]

CC(C)(C)C1CCC2(CC1)CC(NC1CCC3CCCCC3C1)CO2 (centres unmarked) [Compound 98]
1 (about 50-80% disease control): disease control rating RSI [4]
0 (less than 50% disease control): disease control rating PVA [3] | disease control rating LN [5] | disease control rating PHI [6] | disease control rating PO [9] | disease control rating AS [10]
2 (greater than 80% disease control): disease control rating BCB [1] | disease control rating EGT [2] | disease control rating PIP [7] | disease control rating VII [8] | disease control rating EGP [11]

CCCC(CCC)NC1COC2(CCC(C(C)(C)C)CC2)C1 (centres unmarked) [Compound 99, 3-Hept-4-ylamino-8-t-butyl-1-oxaspiro(4,5)-decane]
2 (greater than 80% disease control): disease control rating EGT [2] | disease control rating PIP [7] | disease control rating VII [8] | disease control rating EGP [11]
0 (less than 50% disease control): disease control rating BCB [1] | disease control rating PVA [3] | disease control rating RSI [4] | disease control rating LN [5] | disease control rating PHI [6] | disease control rating PO [9] | disease control rating AS [10]
